29 molecules from patent publication US10519177B2, “Heterocyclic compounds and uses thereof” (Plexxikon Inc., priority 2013, dated 2019) can be followed below.

Broadly, the IC50 is the concentration needed to halve the response being measured.

The test system of experiment [1] is bromodomain. Description: at least one of the bromodomain cell assays of Example 57. The following applies: at least one of the bromodomain cell assays described in Example 57; read-out: IC50 in at least one of the bromodomain cell assays. Type of experiment: cell-based.
The test system of experiment [2] is MV-4-11 cells. Description: Oncology cell growth assay MV-4-11 (CellTiter Glo). In kind it is cell-based. The following applies: Homo sapiens, MV4-11, 72 h; MV-4-11, 3d growth; read-out: Cell activity (IC50 μM) MV-4-11 3d-Growth. From the text:
Published bromodomain inhibitors JQ1 and iBET 151 have shown activity in variety of cancer cells such leukemia and lymphoma, multiple myeloma cells, NUT midline carcinoma and glioblastoma cells (Dawson M A et al. 2011; Delmore J E 2011; Chen Z et al. 2013; Filippakopoulos P et al. 2010; Mertz J A et al. 2011; Ott C J et al. 2012). In this study, we test compounds in different cancer cell lines. MV-4-11 and MOLM-13 are AML cell lines harboring a MLL-AF4 and MLL-AF9 translocation, respectively. MM.1S is a multiple myeloma cell line. SK-N-AS, IMR-32 and SK-N-BE(2) are neuroblastoma cell lines. IMR-32 and SK-N-BE(2) cell lines harbor MYCN amplifications.
MV-4-11, MM.1S, IMR-32, SK-N-AS and SK-N-BE(2) were obtained from ATCC (IL, USA) and MOLM-13 were purchased from DSMZ (Braunschweig, German). Cells are cultured as recommended by their sources. For growth inhibition studies 3000 cells are seeded in wells of a 96-well plate in 75 μL of culture media. After several hours, growth media containing compounds of formula (I) are added to the wells. Compound at a maximal concentration of 5 mM was serially diluted 1:3 for a total of 8 point titration with DMSO as a control. A 1 μL aliquot of each dilution point is added to 249 μL growth media and 75 μL is added to each well containing cells, providing 10 μM compound at the maximum concentration point. The final concentration of DMSO in all wells is 0.2%. Cells are incubated for 72 hours, and 25 μL of CellTiter Glo Reagent (Promega GA, USA) is added to each well. Plates are shaken for approximately 10 minutes and chemiluminescent signal is read on Tecan microplate reader. The measured luminescence correlates directly with cell number.
All data is normalized to the mean of eight DMSO high control wells on each plate. A four parameter curve fit of the following formula was then applied: Y=a+(b−a)/(1+(x/c)^d) Where ‘a’ is the minimum, ‘b’ is the maximum, ‘c’ is the pIC50 and ‘d’ is the Hill slope. […] Myc Reporter Assay
A general note: In ATP-based viability assays light output follows the ATP content of the culture.

A value given as a limit tells only on which side of the number the result lay.

As for `Cc1noc(C)c1-c1ccc2c(-c3cnn(C)c3)cn(S(=O)(=O)c3ccccc3)c2c1` [P-0230, 4-[1-(benzenesulfonyl)-3-(1-methylpyrazol-4-yl)indol-6-yl]-3,5-dimethyl-isoxazole], the IC50 in experiment [1] was less than 10 µM.
On the same count and under the same terms, for `Cc1noc(C)c1-c1ccc2c(-c3cnn(C)c3)cn(S(=O)(=O)C3CCCC3)c2c1` [P-0231, 4-[1-cyclopentyl-sulfonyl-3-(1-methyl-pyrazol-4-yl)indol-6-yl]-3,5-dimethyl-isoxazole] the value was less than 10 µM; for `COC(=O)c1ccc(-c2cn(CC3CC4CC4C3)c3cc(-c4c(C)noc4C)cnc23)cc1` (centres unmarked) [P-0609, methyl 4-[1-(3-bicyclo[3.1.0]hexanylmethyl)-6-(3,5-dimethylisoxazol-4-yl)pyrrolo[3,2-b]pyridin-3-yl]benzoate], less than 10 µM; for `COC(=O)c1ccc(-c2cn(C(c3ccccc3)c3ccccn3)c3cc(-c4c(C)noc4C)cnc23)cc1` (centres unmarked) [P-0610, methyl 4-[6-(3,5-dimethylisoxazol-4-yl)-1-[phenyl(2-pyridyl)methyl]pyrrolo[3,2-b]pyridin-3-yl]benzoate], less than 10 µM.
Consider `Cc1noc(C)c1-c1cnc2c(-c3ccc(C(=O)O)cc3)cn(C(c3ccccc3)c3ccccn3)c2c1` (centres unmarked) [P-0611, 4-[6-(3,5-dimethylisoxazol-4-yl)-1-[phenyl(2-pyridyl)methyl]pyrrolo[3,2-b]pyridin-3-yl]benzoic acid], for which the IC50 in experiment [1] is less than 10 µM.
Still for that read-out and setting: to `Cc1cc(-c2cnc3c(-c4ccc(C(=O)OC(C)(C)C)cc4)cn(CC4CCC(F)(F)CC4)c3c2)cn(C)c1=O` [P-0612, tert-butyl 4-[1-[(4,4-difluorocyclohexyl)methyl]-6-(1,5-dimethyl-6-oxo-3-pyridyl)pyrrolo[3,2-b]pyridin-3-yl]benzoate] belongs less than 10 µM.
On to `Cc1cc(-c2cnc3c(-c4ccc(C(=O)O)cc4)cn(CC4CCC(F)(F)CC4)c3c2)cn(C)c1=O` [P-0613, 4-[1-[(4,4-difluorocyclohexyl)methyl]-6-(1,5-dimethyl-6-oxo-3-pyridyl)pyrrolo[3,2-b]pyridin-3-yl]benzoic acid], for which the IC50 in experiment [1] is less than 10 µM.
On the same count and under the same terms, for `Cc1noc(C)c1-c1cnc2c(-c3ncc(C(=O)O)cn3)cn(CC3CCC(F)(F)CC3)c2c1` [P-0614, 2-[1-[(4,4-difluorocyclohexyl)methyl]-6-(3,5-dimethylisoxazol-4-yl)pyrrolo[3,2-b]pyridin-3-yl]pyrimidine-5-carboxylic acid] the value was less than 10 µM; for `[2H]C([2H])([2H])c1noc(C([2H])([2H])[2H])c1-c1cnc2c(-c3cnn(CC(F)(F)F)c3)cn(CC3CCC(F)(F)CC3)c2c1` [P-0615, 4-[1-[(4,4-difluorocyclohexyl)methyl]-3-[1-(2,2,2-trifluoroethyl)pyrazol-4-yl]pyrrolo[3,2-b]pyridin-6-yl]-3,5-bis(trideuteriomethyl)isoxazole], less than 10 µM; for `Cc1noc(C)c1-c1cnc2c(I)cn(C(c3ccccc3)c3ccccc3)c2c1` [P-0616, 4-(1-benzhydryl-3-iodo-pyrrolo[3,2-b]pyridin-6-yl)-3,5-dimethyl-isoxazole], less than 10 µM.
In the case of `COC(=O)c1ccc(-c2cn(C(c3ccccc3)c3ccccc3)c3cc(-c4c(C)noc4C)cnc23)cc1` [P-0617, methyl 4-[1-benzhydryl-6-(3,5-dimethylisoxazol-4-yl)pyrrolo[3,2-b]pyridin-3-yl]benzoate], in experiment [1], the IC50 is less than 10 µM.
Same read-out and setting: for `Cc1noc(C)c1-c1cnc2c(-c3ccc(C(=O)OC(C)C)cc3)cn(CC3CCC(F)(F)CC3)c2c1` [P-0618, isopropyl 4-[1-[(4,4-difluorocyclohexyl)methyl]-6-(3,5-dimethylisoxazol-4-yl)pyrrolo[3,2-b]pyridin-3-yl]benzoate] the value was less than 10 µM.
Consider `Cc1noc(C)c1-c1cnc2c(-c3ccc(S(C)(=O)=O)cc3)cn(CC3CCC(F)(F)CC3)c2c1` [P-0619, 4-[1-[(4,4-difluorocyclohexyl)methyl]-3-(4-methylsulfonylphenyl)pyrrolo[3,2-b]pyridin-6-yl]-3,5-dimethyl-isoxazole], for which the IC50 in experiment [1] is less than 10 µM.
Turning to `Cc1noc(C)c1-c1cnc2c(-c3ccc(C(=O)O)cc3)cn(C(c3ccccc3)c3ccccc3)c2c1` [P-0620, 4-[1-benzhydryl-6-(3,5-dimethylisoxazol-4-yl)pyrrolo[3,2-b]pyridin-3-yl]benzoic acid], in experiment [1], the IC50 is less than 10 µM.
Still for that read-out and setting: for `Cc1noc(C)c1-c1cnc2c(-c3ccc(C(=O)O)cc3)cn(CC3CC4CC4C3)c2c1` (centres unmarked) [P-0621, 4-[1-(3-bicyclo[3.1.0]hexanylmethyl)-6-(3,5-dimethylisoxazol-4-yl)pyrrolo[3,2-b]pyridin-3-yl]benzoic acid] the value was less than 10 µM; for `Cc1ccc(-c2cn(CC3CCCCC3)c3cc(-c4c(C)noc4C)cnc23)cc1` [P-0622], less than 10 µM.
Take `Cc1noc(C)c1-c1cnc2c(-c3ccc(P(=O)(O)O)cc3)cn(CC3CCCCC3)c2c1` [P-0701, [4-[1-(cyclohexylmethyl)-6-(3,5-dimethylisoxazol-4-yl)pyrrolo[3,2-b]pyridin-3-yl]phenyl]phosphonic acid]: in experiment [1], the IC50 was less than 10 µM.
The same measure, in the same setting: to `Cc1noc(C)c1-c1cnc2c(-c3ccc(C4(C(=O)O)CC4)cc3)cn(CC3CCCCC3)c2c1` [P-0702, 1-[4-[1-(cyclohexylmethyl)-6-(3,5-dimethylisoxazol-4-yl)pyrrolo[3,2-b]pyridin-3-yl]phenyl]cyclopropanecarboxylic acid] belongs less than 10 µM; to `Cc1noc(C)c1-c1cnc2c(-c3ccc(C(C)(C)C(=O)O)cc3)cn(CC3CCCCC3)c2c1` [P-0703, 2-[4-[1-(cyclohexylmethyl)-6-(3,5-dimethylisoxazol-4-yl)pyrrolo[3,2-b]pyridin-3-yl]phenyl]-2-methyl-propanoic acid], less than 10 µM; to `Cc1noc(C)c1-c1cnc2c(-c3ccc(CO)cc3)cn(CC3CCCCC3)c2c1` [P-0704, [4-[1-(cyclohexylmethyl)-6-(3,5-dimethylisoxazol-4-yl)pyrrolo[3,2-b]pyridin-3-yl]phenyl]methanol], less than 10 µM.
On to `COC(=O)c1ccc(-c2cn(CC3CCCCC3)c3cc(-c4c(C)noc4C)cnc23)cc1` [P-0706, methyl 4-[1-(cyclohexylmethyl)-6-(3,5-dimethylisoxazol-4-yl)pyrrolo[3,2-b]pyridin-3-yl]benzoate], for which the IC50 in experiment [1] was less than 10 µM.
The same measure, in the same setting: to `CCOC(=O)c1ccc(-c2cn(CC3CCCCC3)c3cc(-c4c(C)noc4C)cnc23)cc1` [P-0707, ethyl 4-[1-(cyclohexylmethyl)-6-(3,5-dimethylisoxazol-4-yl)pyrrolo[3,2-b]pyridin-3-yl]benzoate] belongs less than 10 µM; to `Cc1noc(C)c1-c1cnc2c(-c3ccc(B(O)O)cc3)cn(CC3CCCCC3)c2c1` [P-0709, [4-[1-(cyclohexylmethyl)-6-(3,5-dimethylisoxazol-4-yl)pyrrolo[3,2-b]pyridin-3-yl]phenyl]boronic acid], less than 10 µM; to `Cc1noc(C)c1-c1cnc2c(F)cn([C@@H](c3ccccc3)c3ccccn3)c2c1` [P-0712, 4-[3-fluoro-1-[(S)-phenyl(2-pyridyl)methyl]pyrrolo[3,2-b]pyridin-6-yl]-3,5-dimethyl-isoxazole], less than 10 µM.
Same read-out and setting: to `Cc1noc(C)c1-c1cnc2c(-c3ccc(CO)cc3)cn([C@@H](c3ccccc3)c3ccccn3)c2c1` [P-0713, [4-[6-(3,5-dimethylisoxazol-4-yl)-1-[(S)-phenyl(2-pyridyl)methyl]pyrrolo[3,2-b]pyridin-3-yl]phenyl]methanol] belongs less than 10 µM; to `Cc1ccc(-c2cn([C@@H](c3ccccc3)c3ccccn3)c3cc(-c4c(C)noc4C)cnc23)cc1` [P-0714, 3,5-dimethyl-4-[1-[(S)-phenyl(2-pyridyl)methyl]-3-(p-tolyl)pyrrolo[3,2-b]pyridin-6-yl]isoxazole], less than 10 µM.
As to `Cc1noc(C)c1-c1cnc2c(I)cn(Cc3ccccc3C#N)c2c1` [P-0921, 2-[[6-(3,5-dimethylisoxazol-4-yl)-3-iodo-pyrrolo[3,2-b]pyridin-1-yl]methyl]benzonitrile], the IC50 in experiment [2] was less than 1 µM.
Still for that read-out and setting: for `COC(=O)c1ccc(-c2c[nH]c3cc(-c4c(C)noc4C)cnc23)cc1` [P-1033, methyl 4-[6-(3,5-dimethylisoxazol-4-yl)-1H-pyrrolo[3,2-b]pyridin-3-yl]benzoate] the value was 1 to 10 µM; for `Cc1noc(C)c1-c1ccc2c(I)cn([C@@H](C)c3ccccn3)c2c1` [P-1051, 4-[3-iodo-1-[(1S)-1-(2-pyridyl)ethyl]indol-6-yl]-3,5-dimethyl-isoxazole], 1 to 10 µM.
